Assay results taken from patent US11053204B2, “Pyrimidinyloxy benzene derivatives as herbicides” (FMC Corporation, priority 2015, dated 2021).

Legend:
Assay type in all cases: in vivo
[1] = tested on: pigweed (Amaranthus retroflexus); test: Test C preemergence, plant response rating; conditions: Preemergence
[2] = tested on: galium (catchweed bedstraw, Galium aparine); test: Test A postemergence, visual injury rating; conditions: 0 is no effect, 100 is complete control
Method in brief: (§1)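 Injury scores run from 0, no effect, to 100, complete control, judged by eye against untreated plants roughly 10 days after treatment. Chemicals carried a surfactant in a non-phytotoxic solvent and went onto loam–sand soil preemergence or onto one- to two-leaf seedlings postemergence.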

kochia (Kochia scoparia) [3] = test: Test A postemergence, visual injury rating; conditions: 0 is no effect, 100 is complete control
Method in brief: as §1

[4] = tested on: giant foxtail (Setaria faberii); test: Test A postemergence, visual injury rating; conditions: 0 is no effect, 100 is complete control
Method in brief: as §1

[5] = tested on: wheat (Triticum aestivum); test: Test A postemergence, visual injury rating; conditions: 0 is no effect, 100 is complete control
Method in brief: as §1

[6] = tested on: barnyardgrass (Echinochloa crus-galli); test: Test A postemergence, visual injury rating; conditions: 0 is no effect, 100 is complete control
Method in brief: as §1

corn (Zea mays) = test: Test A postemergence, visual injury rating; conditions: 0 is no effect, 100 is complete control
Method in brief: as §1

[7] = tested on: ragweed (common ragweed, Ambrosia elatior); test: Test A postemergence, visual injury rating; conditions: 0 is no effect, 100 is complete control
Method in brief: as §1

[8] = tested on: Italian ryegrass (Lolium multiflorum); test: Test A postemergence, visual injury rating; conditions: 0 is no effect, 100 is complete control
Method in brief: as §1

[9] = tested on: pigweed (Amaranthus retroflexus); test: Test A postemergence, visual injury rating; conditions: 0 is no effect, 100 is complete control
Method in brief: as §1

[10] = tested on: blackgrass (Alopecurus myosuroides); test: Test A postemergence, visual injury rating; conditions: 0 is no effect, 100 is complete control
Method in brief: as §1

kochia (Kochia scoparia) [11] = test: Test A preemergence, visual injury rating; conditions: 0 to 100 scale (0 no effect, 100 complete control)
Method in brief: as §1

[12] = tested on: giant foxtail (Setaria faberii); test: Test A preemergence, visual injury rating; conditions: 0 to 100 scale (0 no effect, 100 complete control)
Method in brief: as §1

[13] = tested on: barnyardgrass (Echinochloa crus-galli); test: Test A preemergence, visual injury rating; conditions: 0 to 100 scale (0 no effect, 100 complete control)
Method in brief: as §1

[14] = tested on: ragweed (common ragweed, Ambrosia elatior); test: Test A preemergence, visual injury rating; conditions: 0 to 100 scale (0 no effect, 100 complete control)
Method in brief: as §1

[15] = tested on: Italian ryegrass (Lolium multiflorum); test: Test A preemergence, visual injury rating; conditions: 0 to 100 scale (0 no effect, 100 complete control)
Method in brief: as §1

[16] = tested on: pigweed (Amaranthus retroflexus); test: Test A preemergence, visual injury rating; conditions: 0 to 100 scale (0 no effect, 100 complete control)
Method in brief: as §1

Structure (SMILES) | Plant response rating, Pigweed ([1]; 125 g ai/ha, scale of 0 to 100) | Plant response rating, Pigweed ([1]; 16 g ai/ha, scale 0 to 100) | Plant response rating, Pigweed ([1]; 31 g ai/ha, scale 0 to 100) | Plant response rating, Pigweed ([1]; 62 g ai/ha, scale 0 to 100) | Galium plant response rating (0 to 100 scale) ([2]; 125 g ai/ha) | Galium plant response rating (0 to 100 scale) ([2]; 500 g ai/ha) | Kochia plant response rating (0 to 100 scale) (kochia (Kochia scoparia) [3]; 125 g ai/ha) | Kochia plant response rating (0 to 100 scale) (kochia (Kochia scoparia) [3]; 500 g ai/ha) | Foxtail, Giant plant response rating (0 to 100 scale) ([4]; 125 g ai/ha) | Foxtail, Giant plant response rating (0 to 100 scale) ([4]; 500 g ai/ha) | Wheat plant response rating (0 to 100 scale) ([5]; 125 g ai/ha) | Wheat plant response rating (0 to 100 scale) ([5]; 500 g ai/ha) | Barnyardgrass plant response rating (0 to 100 scale) ([6]; 125 g ai/ha) | Barnyardgrass plant response rating (0 to 100 scale) ([6]; 500 g ai/ha) | Corn plant response rating (0 to 100 scale) (corn (Zea mays); 125 g ai/ha) | Corn plant response rating (0 to 100 scale) (corn (Zea mays); 500 g ai/ha) | Ragweed plant response rating (0 to 100 scale) ([7]; 125 g ai/ha) | Ragweed plant response rating (0 to 100 scale) ([7]; 500 g ai/ha) | Ryegrass, Italian plant response rating (0 to 100 scale) ([8]; 125 g ai/ha) | Ryegrass, Italian plant response rating (0 to 100 scale) ([8]; 500 g ai/ha) | other results
N#Cc1cccc(Oc2ncc(Cl)cn2)c1C(=O)OCCC(F)(F)F [Compound 30] | 100 | 90 | 95 | 100 | 60 | 100 | 100 | 100 | 60 | 100 | 0 | 30 | 0 | 20 | 30 | 70 | 0 | 0 | 0 | 0 | Pigweed plant response rating (0 to 100 scale) ([9]; 125 g ai/ha): 100; Pigweed plant response rating (0 to 100 scale) ([9]; 500 g ai/ha): 100; Blackgrass plant response rating (0 to 100 scale) ([10]; 125 g ai/ha): 10; Blackgrass plant response rating (0 to 100 scale) ([10]; 500 g ai/ha): 30; Kochia plant response rating (kochia (Kochia scoparia) [11]; 125 g ai/ha): 90; Kochia plant response rating (kochia (Kochia scoparia) [11]; 500 g ai/ha): 100; Foxtail, Giant plant response rating ([12]; 125 g ai/ha): 100; Foxtail, Giant plant response rating ([12]; 500 g ai/ha): 100; Barnyardgrass plant response rating ([13]; 125 g ai/ha): 0; Barnyardgrass plant response rating ([13]; 500 g ai/ha): 0; Ragweed plant response rating ([14]; 125 g ai/ha): 0; Ragweed plant response rating ([14]; 500 g ai/ha): 0; Ryegrass, Italian plant response rating ([15]; 125 g ai/ha): 0; Ryegrass, Italian plant response rating ([15]; 500 g ai/ha): 0; Pigweed plant response rating ([16]; 125 g ai/ha): 100; Pigweed plant response rating ([16]; 500 g ai/ha): 100
O=C(OCCC(F)(F)F)c1c(Br)cccc1Oc1ncc(Br)cn1 [Compound 33] | 100 | 80 | 100 | 100 | 100 | 100 | 100 | 100 | 100 | 100 | 20 | 60 | 80 | 100 | 30 | 90 | 30 | 40 | 30 | 80 | Pigweed plant response rating (0 to 100 scale) ([9]; 125 g ai/ha): 100; Pigweed plant response rating (0 to 100 scale) ([9]; 500 g ai/ha): 100; Blackgrass plant response rating (0 to 100 scale) ([10]; 125 g ai/ha): 60; Blackgrass plant response rating (0 to 100 scale) ([10]; 500 g ai/ha): 90; Kochia plant response rating (kochia (Kochia scoparia) [11]; 125 g ai/ha): 60; Kochia plant response rating (kochia (Kochia scoparia) [11]; 500 g ai/ha): 100; Foxtail, Giant plant response rating ([12]; 125 g ai/ha): 100; Foxtail, Giant plant response rating ([12]; 500 g ai/ha): 100; Barnyardgrass plant response rating ([13]; 125 g ai/ha): 100; Barnyardgrass plant response rating ([13]; 500 g ai/ha): 100; Ragweed plant response rating ([14]; 125 g ai/ha): 0; Ragweed plant response rating ([14]; 500 g ai/ha): 20; Ryegrass, Italian plant response rating ([15]; 125 g ai/ha): 40; Ryegrass, Italian plant response rating ([15]; 500 g ai/ha): 100; Pigweed plant response rating ([16]; 125 g ai/ha): 100; Pigweed plant response rating ([16]; 500 g ai/ha): 100
